Patent US12324827B2, “Combination therapy for the treatment of migraines” (The University of Chicago, priority 2019, dated 2025)

Tests used:
[1] = test system: trigeminal ganglion malondialdehyde (MDA); test: Trigeminal ganglion V1 malondialdehyde immunostaining after recurrent CSD, nasal IGF-1 with or without intravenous anti-CGRP antibody (Example 5); type: in vivo, rat
Method: Migraine will be modeled using recurrent CSD (Grinberg et al., 2019; Won and Kraig 2019a,b; Won and Kraig, 2020). Briefly, the day before recurrent CSD, animals are anesthetized with inhalational isoflurane in oxygen (2-5%) and treated with intranasal IGF-1 (150 μg in 50 μl succinate buffer).
The next day (i.e., 20-24 hours later) animals are again be anesthetized as above with inhalational isoflurane and the left femoral vein cannulated for antibody infusion. Select groups of animals (see below) are treated with intravenous infusion either 1 mg/kg anti-CGRP (ab81887) or isotype IgG2a control in 0.5-0.6 ml normal saline. After infusions, the femoral incision is closed with wound clips.
Animals are stabilized for an hour under anesthesia (1.5% isoflurane in oxygen) after head sutures are removed, eyes coated with Artificial Tears and animals made ready for initiation and recording of CSD under deeper (5%) isoflurane in oxygen, which is then lowered back to 1.5% isoflurane in oxygen during CSD recordings. CSD is initiated as described above one to four hours after antibody infusion. All animals receive nine KCl injections. […]
2. […] All animals for nasal delivery of IGF-1 plus intravenous treatment (i.e., one ml saline or anti-CGRP antibody) followed by 90 minutes of evoked CSDs) were analyzed for trigeminal cervical complex c-fos immunostaining and trigeminal ganglion malondialdehyde immunostaining as previously described (Won and Kraig, 2020).
The inventors used a verified method of quantifying immunostaining log-ratios (experimental/sham) as a further means to reduce potential run-to-run variations in immunostaining for malondialdehyde, CGRP and c-fos positive cells (Won and Kraig, 2020). Images of malondialdehyde and CGRP were analyzed in blinded pairs so that they could be converted once decoded to ratios of experimental/sham image integrated optical intensity, a sensitive metric that not only accounts for the area but also the pixel intensity of related image fluorescence.

blood CGRP = test: CGRP plasma assay (ELISA) after recurrent spreading depression; type: in vivo, rat
Method: Blood was collected via cardiac puncture using a 21 gauge syringe needle and transferred into a BD Vacutainer K3 EDTA blood collection tube (366450, Becton, Dickinson & Co., Franklin Lakes, NJ). Samples were spun 1,500 g×10 min at 4° C. The plasma was transferred to sterile 2.0 mL, screw cap, polypropylene tubes and stored at −80° C. until analysis. Plasma samples were sent to Cayman Chemical Company (Ann Arbor, Michigan) for analysis of CGRP content using ELISA methods. According to the vendor, the detection limit is <10 pg/mL.

[2] = within 30 minutes of N2B administration; cited from earlier work
spreading depression = details: cited from earlier work
[3] = Blood glucose after nose-to-brain (N2B) delivery of IGF-1; type: in vivo, Wistar rats; details: 1.0-hour after N2B IGF-1 150 μg, n=4/group

For “IGF-1: human recombinant IGF-1 (#191-G1; R&D Systems), 150 μg in 50 μL sodium succinate buffer, delivered nose-to-brain”, the “ln ratio of trigeminal ganglion MDA immunostaining” value ([1]; nasal IGF-1 alone, as previously reported (Won and Kraig, 2020), n=5) was −1.76±0.29, the “ln ratio of trigeminal ganglion MDA immunostaining” value ([1]; nasal IGF-1 plus intravenous saline, n=3) was −1.75±0.56 and the “ln ratio of trigeminal ganglion MDA immunostaining, combined groups” value ([1]; nasal IGF-1 with or without intravenous saline / nasal succinate, n=8) was −1.76±0.39. For the same substance, the “blood (plasma) CGRP level after recurrent SD” value (blood CGRP; IGF-1 pretreatment, n=6/group, three samples below the detection limit) was 7.7 ± 1.6 pg/mL, the “changes in blood CGRP levels after pretreatment followed by recurrent SD” value (blood CGRP; IGF-1 versus vehicle) was “no significant (p=0.347, power=0.136) changes” and the “levels in the trigeminal ganglion relative to levels in the olfactory bulb” value [2] was roughly 10 fold. For the same substance, the “protection against SD over sham treatment” value (spreading depression; SD from KCl, pretreatment) was roughly 27 fold, the “spreading depression in whole animals” value (spreading depression; nasal delivery) was “significantly inhibited spreading depression in whole animals” and the blood glucose level [3] was 139 ± 24 mg/dL.
